Measured values as given in patent US12599642B2, “Compositions derived from Salvia hispanica seeds” (Signum Biosciences, priority 2020, dated 2026).
Marks after values point to notes of the source that are not given here.

Key:
[1] = molecular target: T1, PME-1 (Homo sapiens, UniProt Q9Y570); assay: PP2A demethylation by PME-1, radioactive filter binding assay; assay type: biochemical
T1 construct: made in house
T1 sequence (Q9Y570 1-386): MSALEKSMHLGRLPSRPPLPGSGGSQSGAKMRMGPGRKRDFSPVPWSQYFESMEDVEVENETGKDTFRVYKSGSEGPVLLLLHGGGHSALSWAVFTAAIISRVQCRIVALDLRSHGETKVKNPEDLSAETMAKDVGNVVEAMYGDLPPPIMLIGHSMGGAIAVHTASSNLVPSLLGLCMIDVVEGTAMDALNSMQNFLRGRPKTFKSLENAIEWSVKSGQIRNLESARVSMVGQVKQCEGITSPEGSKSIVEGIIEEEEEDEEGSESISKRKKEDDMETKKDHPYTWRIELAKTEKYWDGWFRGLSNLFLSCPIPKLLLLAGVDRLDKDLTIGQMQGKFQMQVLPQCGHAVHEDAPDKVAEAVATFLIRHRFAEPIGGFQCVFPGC
Method: Compositions were created using the extraction methods as generally described in Example 1. These compositions were assayed for their ability to preserve the methylation status of PP2A AC dimer in the presence of protein phosphatase methylesterase-1 (PME-1), using a radioactive filter binding assay.
PP2A-AC dimer was prepared as previously described in Tolstykh T, Lee J, Vafai S, Stock J B. Carboxyl methylation regulates phosphoprotein phosphatase 2A by controlling the association of regulatory B subunits. EMBO J. 2000; 19(20:5682-5691. Additional purification was performed with a HiPrep™ 16/60 Sephacryl® S100 HR in a buffer composed of 50 mM MOPS pH 7.2, 1.0 mM EDTA, 1.0 mM dithiothreitol (DTT), and 0.50 μg/ml each of aprotinin, leupeptin and pepstatin. Leucine carboxyl methytransferase-1 (LCMT-1) and Protein phosphatase methylesterase-1 (PME-1) were prepared using the methods as previously described Xing Y, Li Z, Chen Y, Stock J B, Jeffrey P D, Shi Y. Structural mechanism of demethylation and inactivation of protein phosphatase 2A. Cell. 2008; 133(I):154-163.
[3H]-labeled methylated PP2A AC dirtier was prepared by incubating PP2A, LCMT1 and [3H]-SAM (PerkinElmer; Waltham, Mass.) in 50 mM MOPS-Na (pH 7.2), 5 mM MgCl2, and 1 mM DTT at room temperature for 1 hour. Demethylation of PP2A by PME-1 was measured using the radioactive filter binding assay format. 20 nM PME-1 was incubated for 15 minutes with extract or compound, then 20 nM of [3H]-labeled methylated PP2A AC dimer was added. Reactions were run at room temperature for 30 minutes and then applied to a 96-well filter plate (Millipore Co.) containing 30% TCA where proteins were precipitated and separated from the excess of [3H]-SAM by washing with 70% ethanol. [3H]-incorporation was measured using TopCount NXT scintillation counter (PerkinEimer; Waltham, MA). IC50 values were generated from dose-response curves using a four-parameter logistic curve fit using SigmaPlot software (Systat Software, San Jose, CA).

[2] = test system: Cutibacterium acnes (ATCC® 6919™); assay: Minimum inhibitory concentration, growth of C. acnes; assay type: cell-based; conditions: for MIC Cutibacterium acnes (ATCC ® 6919 ™): 90% inhibition of growth, anaerobic, 72 hours, Table 6; for MIC Cutibacterium acnes (ATCC ® 6919): Table 14
Method: (§1) The inhibition of growth of Cutibacterium acnes and Staphylococcus aureus bacteria was measured according to the methods described in Nakatsuji et al., J Invest Dermatol, 2009, 129: 2480-2488; Traub and Leonhard, Chemotherapy, 1994; 40(6):374-383. In summary, the strain ATCC® 6919™ of C. acnes (American Type Culture Collection, Manassas, VA) was cultured on Reinforced Clostridium agar (BD 218081), under anaerobic conditions using Gas-Pak (B D, Sparks, MD) at 37° C. ATCC® 29213™ strain of S. aureus was cultured on tryptic soy agar (BD 211825), under aerobic conditions at 37° C. A single colony was inoculated in broth medium and cultured at 37° C. In addition to various positive controls, both the Final Product and the First Stage Product of the extraction process described in Example 1 were tested as described below. Test material was dissolved in 100% (v/v) DMSO. Doxycycline was dissolved in 100% (v/v) water. Samples of each test material and a solution of doxycycline were then each incubated with an inoculum of bacteria at a concentration of 1×10^6 CFU per mL, in broth medium in a 96-well microplate (0.1 mL per well) under aerobic conditions for 24 hours (S. aureus) or anaerobic conditions for 72 hours (C. acnes). Samples of each material were tested at final concentrations per well up to 4 mg/mL. A control well received only 5% (v/v) of DMSO or water. After 24-72 hours incubation, the bacteria cultures in the 96-well microplate were mixed well and then absorbance readings at 600 nm were taken to determine bacterial growth.

[3] = test system: Staphylococcus aureus (ATCC® 29213™); assay: Minimum inhibitory concentration, growth of S. aureus; assay type: cell-based; conditions: for MIC Staphylococcus aureus (ATCC ® 29213 ™): 90% inhibition of growth, aerobic, 24 hours, Table 6; for MIC Staphylococcus aureus (ATCC ® 29213): Table 14
Method: as §1

[4] = test system: human pre-adipocyte cells; assay: Lipolysis assay, glycerol release; assay type: cell-based; conditions: 100 μM, 8 hours
From the text: Lipolysis is the process in which triglycerides (TG) are hydrolyzed into glycerol and free fatty acids. This process releases free fatty acids (FFA) into the bloodstream where they may be either re-esterified by the adipocyte or travel to other tissues and exert other effects throughout the body. The purpose of this study was to evaluate the lipolysis via measure of the glycerol molecule released in lipolysis process. Here, we evaluated the potential capacity of the chia seed extract composition of Example 1 in cultured human pre-adipocyte cells. Cells were seeded in medium and incubated for 7 days. Neat solutions of the enriched free acid chia seed extract composition of Example 1 were prepared formulated in methanol. Cells were pre-treated for 8 hours with or without test material in media.
A Lipolysis Assay Kit (Cat. No. Lip-1) was obtained from Zen-Bio, Inc. (Research Triangle, NC) and used to determine glycerol levels (μM) based on the methodology described below. Glycerol released to the medium is phosphorylated by […] (ATP) forming glycerol-1-phosphate (G-1-P) and adenosine-5′-diphosphate (ADP) in the reaction catalyzed by glycerol kinase. G-1-P is then oxidized by glycerol phosphate oxidase to dihydroxyacetone phosphate (DAP) and hydrogen peroxide. […] The increase in absorbance at 540 nm is directly proportional to glycerol concentration of the sample. […]

[5] = Clinical trial, skin moisturization by Corneometer; assay type: in vivo, human; conditions: lower leg
Method: A single-blind, single-center clinical trial was conducted with 6 healthy volunteers of either sex to evaluate the moisturization efficacy of a moisturizing cream (formulated as shown below in Table 8) containing the composition prepared using the process of Example 9, vehicle (i.e., the formulation of Table 8 minus the active ingredient-i.e., the chia seed composition), a negative control (untreated), and two positive controls (petroleum jelly and glycerin). The objective of this study was to evaluate the moisturization efficacy (as measured by Corneometer®) and to evaluate the relative degree of improvement to skin barrier functionality of two test articles as measured by Trans Epidermal Water Loss (TEWL) assessments when tested in 16 healthy subjects. See, e.g., Johan du […] et al., International Guidelines for The In Vivo Assessment Of Skin Properties In Noel-Clinical Settings: Part 2. Transepidermal Water Loss and Skin Hydration, Skin Res. Technol. 19(3), 265-278 (2013); C. W. Blichmann and J. Serup, Assessment of Skin Moisture. Measurement of Electrical Conductance: Capacitance and Transepidermal Water Loss, Acta Derm. Venereol. 68(4): 284-290 (1988). On day -3 of the study, subjects were given a bland soap product (e.g., Simple® Soap) to use on their lower legs for the three days prior to the active phase. They were instructed not to use any other treatment products on their lower legs for the next 3 days (the “Washout Phase”). These products included moisturizing foam baths, shower gels or soaps, lotions and creams, and depilatory products. As part of the pre-treatment assessment, subjects sat resting for a period of at least 30 minutes in a controlled environment at a temperature of 22° C.±2° C. and at a relative humidity of 45%±5%. Following the rest period, their lower legs were marked with a total of four 5 cm×5 cm squares. Moisturization measurements to study the humectant properties of the test articles were performed using the Corneometer® CM825 (Courage and Khazaka, Germany). This instrument relies on the dielectric constant, a physical property of water, which is relatively high and as such will affect the capacitance of a capacitor. Any change in the dielectric constant due to skin moisture variations would alter the capacitance of the precision capacitor in the instrument. These variations were detected electronically and converted into a value by the Corneometer®. A 15-minute warm-up period was allowed before using the Corneometer®. Following assessments of skin hydration by a Corneometer®, a single application of the test articles (i.e., the chia seed formulation and vehicle alone) was made to the lower leg. Further Corneometer® assessments were then performed at 2, 8, and 24-hours following test article application. […]

Row | SMILES | MIC Cutibacterium acnes (ATCC ® 6919 ™) [2] | MIC Cutibacterium acnes (ATCC ® 6919) [2] | MIC Staphylococcus aureus (ATCC ® 29213 ™) [3] | MIC Staphylococcus aureus (ATCC ® 29213) [3] | also measured
1 | CC/C=C\C/C=C\C/C=C\CCCCCCCC(=O)O [ALA, cis,cis,cis-9,12,15-octacedatriencoic acid] |  |  |  |  | [ALA] necessary to obtain 50% PP2A inhibition ([1]; [LA]=0 μg/mL): > 8 µg/mL; [ALA] necessary to obtain 50% PP2A inhibition ([1]; [LA]=0.5 μg/mL): > 4 µg/mL
2 | O=C(OOC(=O)c1ccccc1)c1ccccc1 [Benzoyl peroxide] | 500 μg\mL | 500 μg\mL | 500 μg\mL | 500 μg\mL | 
3 | C[C@H]1c2cccc(O)c2C(=O)C2=C(O)[C@]3(O)C(=O)C(C(N)=O)=C(O)[C@@H](N(C)C)[C@@H]3[C@@H](O)[C@@H]21 [Doxycycline] | 0.6 μg\mL | 0.6 μg\mL | 0.2 μg\mL | 0.2 μg\mL | 
4 | CC(C)Cn1c(=O)n(C)c(=O)c2[nH]cnc21 [IBMX, 3-isobutyl-1-methylxanthine] |  |  |  |  | Glycerol Levels, Avg [4]: 8.8* (p < 0.01 μM; Glycerol Levels, Fold Improvement [4]: 6.4
5 | CCCCC/C=C\C/C=C\CCCCCCCC(=O)O [LA, cis,cis-9,12-octadecadienoic acid] |  |  |  |  | [LA] at which 50% PP2A inhibition is achieved ([1]; regardless of [ALA]): ≥ 1 µg/mL
6 | OCC(O)CO [Positive Control (glycerine), glycerine] |  |  |  |  | Mean Corneometer ® Values ([5]; 0 hours (before application)): 22.7; Mean Corneometer ® Values ([5]; 2 hours after single application): 127.1; Mean Corneometer ® Values ([5]; 8 hours after single application): 106.8; Mean Corneometer ® Values ([5]; 24 hours after single application): 82.3
7 | O=C(O)c1ccccc1O [Salicylic Acid] | 1000 μg\mL | 500 μg\mL | 2000 μg\mL | 2000 μg\mL | 
